Assay results published in US5663165A, “Hypolipidaemic benzothiazepine compounds” (Glaxo Wellcome Inc., priority 1992, dated 1997).

Test system: sodium-dependent 3H taurocholate uptake in rat distal ileal brush border membrane vesicles
Assay: In vitro inhibition of bile acid uptake
Type: biochemical
Details: 10 μM 3H taurocholate, 30 seconds at 24° C., active (sodium-dependent) uptake vs control
Method: In vitro inhibition of bile acid uptake
Freshly prepared rat distal ileal brush border membrane vesicles (about […] vesicle protein) were incubated for 30 seconds at 24° C. in an incubation mixture comprising 10 μM ^3 H taurocholate, 100 mM NaCl (or KCl) and 80 mM mannitol in 20 mM Hepes Tris pH 7.4. Each test compound was dissolved in ethanol (or water) and then diluted with incubation mixture to an ethanol concentration of not more than 1% v/v. The incubation was terminated by rapid dilution and filtration and the filter washed with an ice-cold isotonic sodium-free buffer.
The uptake of ^3 H taurocholate was measured by the radioactivity remaining on the filter and converted to pmoles/mg vesicle protein. The active, ie sodium-dependent, uptake was obtained by subtracting the passive uptake measured in 100 mM KCl from the total uptake measured in 100 mM NaCl. The active uptake for each test compound was compared with a control active uptake and the results expressed at % inhibition of bile acid uptake.

SMILES: CCCC[C@]1(CC)CS(=O)(=O)c2ccccc2[C@@H](c2ccccc2)N1 [Synthetic Example 1, (-)-(RR)-3-butyl-3-ethyl-2,3,4,5-tetrahydro-5-phenyl-1,4-benzothiazepine-1,1-dioxide]
- % inhibition of bile acid uptake (0.3 μM test compound): 55%
- % inhibition of bile acid uptake (1 μM test compound): 69%
- % inhibition of bile acid uptake (3 μM test compound): 85%
- % inhibition of bile acid uptake (10 μM test compound): 96%
